Results: patent publication US20260262643A1, “HERBICIDAL BENZOXAZINES” (FMC CORPORATION, priority 2022, published 2026)

Experiments:
[1] = tested on: barnyardgrass; experiment: Test C preemergence; assay type: in vivo, Echinochloa crusgalli; conditions: for Barnyardgrass plant response rating: preemergence; for Plant response rating, Barnyardgrass: Preemergence
In short: (§1)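 Test material, in non-phytotoxic solvent with surfactant, was sprayed on the soil directly after seeding (preemergence) or on young plants of 2–10 cm with one to two leaves (postemergence). Greenhouse, 10 days; 0–100 visual control scale.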

[2] = tested on: blackgrass; experiment: Test C preemergence; assay type: in vivo, Alopecurus myosuroides; conditions: for Blackgrass plant response rating: preemergence; for Plant response rating, Blackgrass: Preemergence
In short: as §1

[3] = tested on: corn; experiment: Test C preemergence; assay type: in vivo, Zea mays; conditions: for Corn plant response rating: preemergence; for Plant response rating, Corn: Preemergence
In short: as §1

[4] = tested on: green foxtail; experiment: Test C preemergence; assay type: in vivo, Setaria viridis; conditions: for Foxtail, Green plant response rating: preemergence; for Plant response rating, Foxtail, Green: Preemergence
In short: as §1

[5] = tested on: kochia; experiment: Test C preemergence; assay type: in vivo, Bassia scoparia; conditions: for Kochia plant response rating: preemergence; for Plant response rating, Kochia: Preemergence
In short: as §1

[6] = tested on: oat, wild; experiment: Test C preemergence; assay type: in vivo, Avena fatua; conditions: for Oat, Wild plant response rating: preemergence; for Plant response rating, Oat, Wild: Preemergence
In short: as §1

[7] = tested on: pigweed, palmer; experiment: Test C preemergence; assay type: in vivo, Amaranthus palmeri; conditions: for Pigweed, Palmer plant response rating: preemergence; for Plant response rating, Pigweed, Palmer: Preemergence
In short: as §1

[8] = tested on: ragweed; experiment: Test C preemergence; assay type: in vivo, Ambrosia artemisiifolia; conditions: for Ragweed plant response rating: preemergence; for Plant response rating, Ragweed: Preemergence
In short: as §1

[9] = tested on: ryegrass, Italian; experiment: Test C preemergence; assay type: in vivo, Lolium multiflorum; conditions: for Ryegrass, Italian plant response rating: preemergence; for Plant response rating, Ryegrass, Italian: Preemergence
In short: as §1

[10] = tested on: soybean; experiment: Test C preemergence; assay type: in vivo, Glycine max; conditions: for Soybean plant response rating: preemergence; for Plant response rating, Soybean: Preemergence
In short: as §1

[11] = tested on: wheat; experiment: Test C preemergence; assay type: in vivo, Triticum aestivum; conditions: for Wheat plant response rating: preemergence; for Plant response rating, Wheat: Preemergence
In short: as §1

[12] = tested on: barnyardgrass; experiment: Test C postemergence; assay type: in vivo, Echinochloa crusgalli; conditions: 10 days
In short: as §1

[13] = tested on: blackgrass; experiment: Test C postemergence; assay type: in vivo, Alopecurus myosuroides; conditions: 10 days
In short: as §1

[14] = tested on: corn; experiment: Test C postemergence; assay type: in vivo, Zea mays; conditions: 10 days
In short: as §1

[15] = tested on: green foxtail; experiment: Test C postemergence; assay type: in vivo, Setaria viridis; conditions: 10 days
In short: as §1

[16] = tested on: kochia; experiment: Test C postemergence; assay type: in vivo, Bassia scoparia; conditions: 10 days
In short: as §1

[17] = tested on: oat, wild; experiment: Test C postemergence; assay type: in vivo, Avena fatua; conditions: 10 days
In short: as §1

[18] = tested on: pigweed, palmer; experiment: Test C postemergence; assay type: in vivo, Amaranthus palmeri; conditions: 10 days
In short: as §1

[19] = tested on: ragweed; experiment: Test C postemergence; assay type: in vivo, Ambrosia artemisiifolia; conditions: 10 days
In short: as §1

[20] = tested on: ryegrass, Italian; experiment: Test C postemergence; assay type: in vivo, Lolium multiflorum; conditions: 10 days
In short: as §1

[21] = tested on: soybean; experiment: Test C postemergence; assay type: in vivo, Glycine max; conditions: 10 days
In short: as §1

[22] = tested on: wheat; experiment: Test C postemergence; assay type: in vivo, Triticum aestivum; conditions: 10 days
In short: as §1

[23] = tested on: horseweed; experiment: Test C postemergence; assay type: in vivo, Erigeron canadensis; conditions: 10 days
In short: as §1

[24] = tested on: barnyardgrass; experiment: Test D flooded paddy test; assay type: in vivo, Echinochloa crus-galli; conditions: 250 g ai/ha, applied to paddy water, visual rating after 13 to 14 days, scale 0 to 100 (0 no effect, 100 complete control)
In short: (§2)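 Seedlings reached the 2-leaf stage, then pots were flooded to 3 cm over the soil surface. Compound was applied into the water, depth was maintained, and plants stayed in the greenhouse 13 to 14 days before visual scoring (0–100) relative to controls.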

[25] = tested on: ducksalad; experiment: Test D flooded paddy test; assay type: in vivo, Heteranthera limosa; conditions: 250 g ai/ha, applied to paddy water, visual rating after 13 to 14 days, scale 0 to 100 (0 no effect, 100 complete control)
In short: as §2

[26] = tested on: rice; experiment: Test D flooded paddy test; assay type: in vivo, Oryza sativa; conditions: 250 g ai/ha, applied to paddy water, visual rating after 13 to 14 days, scale 0 to 100 (0 no effect, 100 complete control)
In short: as §2

[27] = tested on: sedge, umbrella; experiment: Test D flooded paddy test; assay type: in vivo, Cyperus difformis; conditions: 250 g ai/ha, applied to paddy water, visual rating after 13 to 14 days, scale 0 to 100 (0 no effect, 100 complete control)
In short: as §2

[28] = 500 g ai/ha, 0 to 100 scale (0 no effect, 100 complete control)
[29] = 125 g ai/ha, 0 to 100 scale, 0 no effect, 100 complete control
[30] = 500 g ai/ha, postemergence, 0 to 100 scale (0 no effect, 100 complete control)
[31] = Postemergence, 125 g ai/ha, 0 to 100 scale (0 no effect, 100 complete control)
[32] = 500 g ai/ha, visual rating after 10 days, 0 to 100 scale (0 no effect, 100 complete control)
[33] = Test C, 125 g ai/ha, 0 to 100 scale (0 no effect, 100 complete control)
[34] = 125 g ai/ha, postemergence, 0 to 100 scale, 0 no effect, 100 complete control
[35] = Postemergence, 500 g ai/ha, visual 0 to 100 scale (0 no effect, 100 complete control)

CCOC[C@H]1CN(C(=O)c2cc(-n3cnc(C(C)(C)C)n3)cc3c2OCO3)c2cccc(Cl)c2O1 [Compound 401]
10: Plant response rating, Barnyardgrass [12, 31] | Plant response rating, Blackgrass [13, 31] | Plant response rating, Foxtail, Green [15, 31] | Plant response rating, Wheat [22, 31]
70: Barnyardgrass plant response rating [1, 28] | Plant response rating, Ryegrass, Italian [9, 29] | Plant response rating, Horseweed [23, 30]
30: Plant response rating, Barnyardgrass [1, 29] | Blackgrass plant response rating [2, 28] | Plant response rating, Blackgrass [2, 29] | Plant response rating, Blackgrass [13, 30]
100: Foxtail, Green plant response rating [4, 28] | Pigweed, Palmer plant response rating [7, 28] | Plant response rating, Pigweed, Palmer [7, 29] | Plant response rating, Kochia [16, 30] | Plant response rating, Pigweed, Palmer [18, 31]
20: Corn plant response rating [3, 28] | Plant response rating, Foxtail, Green [4, 29] | Wheat plant response rating [11, 28] | Plant response rating, Barnyardgrass [12, 30] | Plant response rating, Foxtail, Green [15, 30]
60: Ragweed plant response rating [8, 28] | Plant response rating, Ragweed [19, 31] | Plant response rating, Horseweed [23, 31]
0: Plant response rating, Corn [3, 29] | Plant response rating, Kochia [5, 29] | Plant response rating, Oat, Wild [6, 29] | Plant response rating, Ragweed [8, 29] | Plant response rating, Soybean [10, 29] | Plant response rating, Wheat [11, 29] | Plant response rating, Corn [14, 31] | Plant response rating, Oat, Wild [17, 30] | Plant response rating, Oat, Wild [17, 31] | Plant response rating, Ryegrass, Italian [20, 31] | Plant response rating, Soybean [21, 31] | Plant response rating, Barnyardgrass (Flood) [24] | Plant response rating, Ducksalad (Flood) [25] | Plant response rating, Rice (Flood) [26] | Plant response rating, Sedge, Umbrella (Flood) [27]
40: Oat, Wild plant response rating [6, 28] | Soybean plant response rating [10, 28] | Plant response rating, Corn [14, 30]
90: Kochia plant response rating [5, 28] | Ryegrass, Italian plant response rating [9, 28] | Plant response rating, Kochia [16, 31] | Plant response rating, Pigweed, Palmer [18, 30]

COc1cc(C(=O)N2C[C@H](C)Oc3c(Cl)cccc32)cc(-n2cnc(C3CCC3)n2)c1 [Compound 214]
100: Plant response rating, Barnyardgrass [1, 32] | Plant response rating, Foxtail, Green [4, 32] | Foxtail, Green plant response rating [4, 33] | Plant response rating, Kochia [5, 32] | Plant response rating, Pigweed, Palmer [7, 32] | Pigweed, Palmer plant response rating [7, 33] | Plant response rating, Kochia [16, 35] | Plant response rating, Pigweed, Palmer [18, 34] | Plant response rating, Pigweed, Palmer [18, 35] | Plant response rating, Soybean [21, 34] | Plant response rating, Soybean [21, 35]
30: Soybean plant response rating [10, 33] | Plant response rating, Wheat [11, 32] | Plant response rating, Foxtail, Green [15, 34] | Plant response rating, Wheat [22, 35]
0: Oat, Wild plant response rating [6, 33] | Plant response rating, Ragweed [8, 32] | Plant response rating, Blackgrass [13, 34] | Plant response rating, Horseweed [23, 34] | Plant response rating, Barnyardgrass (Flood) [24] | Plant response rating, Rice (Flood) [26]
10: Corn plant response rating [3, 33] | Ragweed plant response rating [8, 33] | Wheat plant response rating [11, 33]
80: Plant response rating, Oat, Wild [6, 32] | Ryegrass, Italian plant response rating [9, 33] | Plant response rating, Soybean [10, 32] | Plant response rating, Blackgrass [13, 35] | Plant response rating, Foxtail, Green [15, 35]
40: Plant response rating, Ragweed [19, 34] | Plant response rating, Ragweed [19, 35] | Plant response rating, Ryegrass, Italian [20, 35] | Plant response rating, Horseweed [23, 35]
90: Kochia plant response rating [5, 33] | Plant response rating, Ryegrass, Italian [9, 32] | Plant response rating, Sedge, Umbrella (Flood) [27]
70: Plant response rating, Blackgrass [2, 32] | Plant response rating, Corn [14, 35] | Plant response rating, Kochia [16, 34] | Plant response rating, Ducksalad (Flood) [25]
20: Blackgrass plant response rating [2, 33] | Plant response rating, Corn [3, 32] | Plant response rating, Barnyardgrass [12, 34] | Plant response rating, Barnyardgrass [12, 35] | Plant response rating, Oat, Wild [17, 34] | Plant response rating, Oat, Wild [17, 35] | Plant response rating, Ryegrass, Italian [20, 34] | Plant response rating, Wheat [22, 34]
50: Barnyardgrass plant response rating [1, 33]
60: Plant response rating, Corn [14, 34]
